Data from ChEMBL document CHEMBL4715869, “N-(Pyrimidin-2-yl)-1,2,3,4-tetrahydroisoquinolin-6-amine Derivatives as Selective Janus Kinase 2 Inhibitors for the Treatment of Myeloproliferative Neoplasms” (J Med Chem, 2020).

Tested on: SET-2
Test: Induction of apoptosis in human SET-2 cells assessed as late apoptotic cells at 1.6 uM incubated for 24 hrs by Annexin V/PI staining based flow cytometric analysis (reference value: 1.52%)
Format: functional

## Cc1cnc(Nc2ccc3c(c2)CCN(C(=O)/C=C/CN(C)C)C3)nc1-c1cnn(C(C)C)c1
  Activity: 45.54%
